Results on 22 compounds are retold here after patent US8785457B2 (Cellzome Limited, priority 2009, dated 2014).

Molecules are shown by their SMILES. A value given as a limit tells only on which side of the number the result lay.

For assay [1], the target named is T1, DNA-dependent protein kinase (DNA-PK) (Homo sapiens, UniProt P78527).
T1 construct: endogenous in cells; host or cells: Jurkat, clone E6-1 (ATCC TIB-152) cell lysate
Nature of the assay: kinobeads assay, DNA-PK. As to conditions: Further Kinobeads Data; read-out: DNAPK. The format is binding. Put shortly: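 IC50 values came from dose-response curves after test compound (1:3 series) competed with an immobilized phenylmorpholin-chromen affinity matrix for kinases in Jurkat lysate at 5 mg/mL protein. Eluted captured DNA-PK and PI3Kδ were measured by specific-antibody dot blot and infrared imaging. Buffer was Tris pH 7.4, NP40, MgCl2, NaCl, vanadate, DTT, NaF.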

The target in assay [2] is T2, mTOR (Homo sapiens, UniProt P42345).
T2 construct: endogenous in cells; host or cells: Jurkat, clone E6-1 (ATCC TIB-152) cell lysate
The experiment in a line: mTOR kinobeads assay (competitive binding in Jurkat cell lysate, immunodetection). The following applies: Further Kinobeads Data; read-out: mTor. The method, boiled down:
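IC50 derived from dose-response curves of mTOR captured on immobilized phenylmorpholin-chromen beads, detected by antibody dot blot with infrared fluorescence.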

T1 sequence (P78527 whole entry): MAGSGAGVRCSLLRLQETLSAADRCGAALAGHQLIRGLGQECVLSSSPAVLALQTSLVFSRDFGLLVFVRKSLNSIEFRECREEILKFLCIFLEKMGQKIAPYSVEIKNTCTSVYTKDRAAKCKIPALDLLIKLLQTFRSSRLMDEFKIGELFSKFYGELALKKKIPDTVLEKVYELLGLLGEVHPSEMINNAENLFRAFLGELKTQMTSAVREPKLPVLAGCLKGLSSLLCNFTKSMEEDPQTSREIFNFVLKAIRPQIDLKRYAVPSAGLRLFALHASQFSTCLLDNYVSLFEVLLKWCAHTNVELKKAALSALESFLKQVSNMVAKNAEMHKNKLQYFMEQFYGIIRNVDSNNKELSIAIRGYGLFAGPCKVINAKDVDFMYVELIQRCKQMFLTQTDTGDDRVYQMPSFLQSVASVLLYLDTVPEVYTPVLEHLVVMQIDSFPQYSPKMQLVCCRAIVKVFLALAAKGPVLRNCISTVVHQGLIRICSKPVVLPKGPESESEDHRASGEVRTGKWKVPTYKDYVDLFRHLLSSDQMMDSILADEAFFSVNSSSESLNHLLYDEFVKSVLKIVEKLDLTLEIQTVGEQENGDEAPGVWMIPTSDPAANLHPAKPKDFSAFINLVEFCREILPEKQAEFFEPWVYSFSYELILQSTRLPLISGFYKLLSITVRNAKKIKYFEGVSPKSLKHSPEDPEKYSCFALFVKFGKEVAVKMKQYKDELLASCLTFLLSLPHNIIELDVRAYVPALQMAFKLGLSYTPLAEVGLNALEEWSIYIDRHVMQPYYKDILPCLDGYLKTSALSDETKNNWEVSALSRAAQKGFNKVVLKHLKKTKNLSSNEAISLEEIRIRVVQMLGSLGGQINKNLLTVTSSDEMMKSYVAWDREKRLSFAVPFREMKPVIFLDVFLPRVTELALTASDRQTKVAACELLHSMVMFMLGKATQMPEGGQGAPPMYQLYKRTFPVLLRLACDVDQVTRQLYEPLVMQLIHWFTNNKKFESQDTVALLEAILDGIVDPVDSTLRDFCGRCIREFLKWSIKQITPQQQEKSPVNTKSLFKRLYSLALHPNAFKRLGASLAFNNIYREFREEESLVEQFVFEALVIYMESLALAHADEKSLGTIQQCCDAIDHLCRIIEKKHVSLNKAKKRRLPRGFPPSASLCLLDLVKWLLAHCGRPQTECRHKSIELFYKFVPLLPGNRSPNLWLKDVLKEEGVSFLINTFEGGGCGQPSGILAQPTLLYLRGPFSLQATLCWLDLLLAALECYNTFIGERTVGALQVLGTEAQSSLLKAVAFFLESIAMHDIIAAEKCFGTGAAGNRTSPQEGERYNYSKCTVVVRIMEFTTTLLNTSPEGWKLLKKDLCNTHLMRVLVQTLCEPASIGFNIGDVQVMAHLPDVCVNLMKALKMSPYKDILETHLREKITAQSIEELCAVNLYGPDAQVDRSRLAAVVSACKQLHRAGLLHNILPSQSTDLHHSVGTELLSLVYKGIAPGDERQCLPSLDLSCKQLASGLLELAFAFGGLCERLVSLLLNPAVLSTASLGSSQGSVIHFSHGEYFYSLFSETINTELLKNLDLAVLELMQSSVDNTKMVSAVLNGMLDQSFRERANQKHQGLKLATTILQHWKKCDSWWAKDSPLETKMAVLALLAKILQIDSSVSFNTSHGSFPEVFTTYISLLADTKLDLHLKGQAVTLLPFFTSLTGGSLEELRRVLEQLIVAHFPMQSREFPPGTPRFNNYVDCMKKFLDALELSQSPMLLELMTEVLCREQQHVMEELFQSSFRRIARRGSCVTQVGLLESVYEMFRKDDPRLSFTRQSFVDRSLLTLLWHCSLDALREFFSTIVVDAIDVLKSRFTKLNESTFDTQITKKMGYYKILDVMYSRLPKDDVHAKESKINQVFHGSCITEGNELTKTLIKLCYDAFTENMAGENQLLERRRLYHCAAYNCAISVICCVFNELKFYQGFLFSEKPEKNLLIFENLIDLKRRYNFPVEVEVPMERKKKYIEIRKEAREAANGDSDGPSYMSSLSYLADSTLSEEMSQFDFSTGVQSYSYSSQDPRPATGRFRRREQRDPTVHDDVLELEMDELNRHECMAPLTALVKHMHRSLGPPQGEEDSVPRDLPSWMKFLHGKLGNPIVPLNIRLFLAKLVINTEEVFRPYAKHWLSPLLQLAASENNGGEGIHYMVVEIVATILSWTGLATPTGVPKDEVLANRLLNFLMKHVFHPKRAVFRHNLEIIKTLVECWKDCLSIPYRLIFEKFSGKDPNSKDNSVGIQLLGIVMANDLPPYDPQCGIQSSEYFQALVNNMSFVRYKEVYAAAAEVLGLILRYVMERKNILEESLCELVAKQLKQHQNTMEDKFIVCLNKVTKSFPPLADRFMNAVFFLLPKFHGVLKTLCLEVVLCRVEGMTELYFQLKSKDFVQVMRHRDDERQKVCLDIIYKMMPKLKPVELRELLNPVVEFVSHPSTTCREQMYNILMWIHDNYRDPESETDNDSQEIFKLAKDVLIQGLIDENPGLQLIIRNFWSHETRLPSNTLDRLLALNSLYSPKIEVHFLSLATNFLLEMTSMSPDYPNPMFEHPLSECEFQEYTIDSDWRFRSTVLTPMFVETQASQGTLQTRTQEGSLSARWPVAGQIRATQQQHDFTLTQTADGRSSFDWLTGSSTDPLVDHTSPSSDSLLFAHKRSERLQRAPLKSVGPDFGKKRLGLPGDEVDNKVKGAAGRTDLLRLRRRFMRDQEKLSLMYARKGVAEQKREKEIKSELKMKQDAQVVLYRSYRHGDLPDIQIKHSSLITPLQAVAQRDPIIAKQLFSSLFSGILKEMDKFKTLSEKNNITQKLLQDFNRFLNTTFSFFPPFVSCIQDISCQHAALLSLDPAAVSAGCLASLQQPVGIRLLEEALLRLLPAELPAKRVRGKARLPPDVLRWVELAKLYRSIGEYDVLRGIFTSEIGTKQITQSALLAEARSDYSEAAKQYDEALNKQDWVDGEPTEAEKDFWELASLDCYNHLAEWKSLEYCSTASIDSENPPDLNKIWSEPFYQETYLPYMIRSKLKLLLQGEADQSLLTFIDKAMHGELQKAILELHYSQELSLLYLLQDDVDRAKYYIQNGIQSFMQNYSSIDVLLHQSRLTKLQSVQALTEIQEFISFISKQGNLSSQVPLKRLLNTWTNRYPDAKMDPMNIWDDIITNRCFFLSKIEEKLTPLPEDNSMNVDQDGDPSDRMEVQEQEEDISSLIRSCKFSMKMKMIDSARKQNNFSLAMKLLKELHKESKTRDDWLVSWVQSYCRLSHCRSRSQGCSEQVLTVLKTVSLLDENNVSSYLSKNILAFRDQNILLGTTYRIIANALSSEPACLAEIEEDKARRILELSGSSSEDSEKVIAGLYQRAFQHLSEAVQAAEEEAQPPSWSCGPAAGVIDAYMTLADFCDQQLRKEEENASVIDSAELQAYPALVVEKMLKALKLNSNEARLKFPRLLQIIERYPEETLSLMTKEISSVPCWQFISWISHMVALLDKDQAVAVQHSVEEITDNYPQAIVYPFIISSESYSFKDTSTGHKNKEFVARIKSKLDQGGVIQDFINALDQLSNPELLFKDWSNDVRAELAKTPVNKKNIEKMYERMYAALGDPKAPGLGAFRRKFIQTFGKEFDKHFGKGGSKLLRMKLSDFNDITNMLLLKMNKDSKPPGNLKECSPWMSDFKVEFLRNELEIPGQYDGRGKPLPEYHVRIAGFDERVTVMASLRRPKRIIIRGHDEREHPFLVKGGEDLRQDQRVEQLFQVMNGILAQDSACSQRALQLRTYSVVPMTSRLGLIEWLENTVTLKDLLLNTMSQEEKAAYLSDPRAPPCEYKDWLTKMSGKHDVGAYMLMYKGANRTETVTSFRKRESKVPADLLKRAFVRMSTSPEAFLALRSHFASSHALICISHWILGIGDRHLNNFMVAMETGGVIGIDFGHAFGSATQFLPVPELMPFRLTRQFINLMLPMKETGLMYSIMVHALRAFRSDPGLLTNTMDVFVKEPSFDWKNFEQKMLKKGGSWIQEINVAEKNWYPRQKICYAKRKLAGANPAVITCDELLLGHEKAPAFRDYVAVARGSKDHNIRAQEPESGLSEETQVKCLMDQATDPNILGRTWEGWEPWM

For the compound `CCOC(=O)N1Cc2nc(-c3ccc(NC(=O)NCCO)cc3F)nc(N3CCOC[C@@H]3C)c2C1` [Example 167, (S)-Ethyl 2-(2-fluoro-4-(3-(2-hydroxyethyl)ureido)phenyl)-4-(3-methylmorpholino)-5H-pyrrolo[3,4-d]pyrimidine-6(7H)-carboxylate], the IC50 in assay [1] is greater than 10000 nM; in assay [2], less than 100 nM.
The like results for `CCOC(=O)N1Cc2nc(-c3ccc(NC(=O)NCCF)cc3F)nc(N3CCOC[C@@H]3C)c2C1` [Example 168, (S)-ethyl 2-(2-fluoro-4-(3-(2-fluoroethyl)ureido)phenyl)-4-(3-methylmorpholino)-5H-pyrrolo[3,4-d]pyrimidine-6(7H)-carboxylate] were, in that order, greater than 10000 nM and less than 100 nM.
For `COC(=O)N1Cc2nc(-c3ccc(NC(=O)NCCF)cc3F)nc(N3CCOCC3)c2C1` [Example 169, Methyl 2-(2-fluoro-4-(3-(2-fluoroethyl)ureido)phenyl)-4-morpholino-5H-pyrrolo[3,4-d]pyrimidine-6(7H)-carboxylate] the same measures were greater than 10000 nM and less than 100 nM.
Regarding `CCOC(=O)N1Cc2nc(-c3ccc(NC(=O)NCCF)cc3F)nc(N3CCOCC3)c2C1` [Example 170, ethyl 2-(2-fluoro-4-(3-(2-fluoroethyl)ureido)phenyl)-4-morpholino-5H-pyrrolo[3,4-d]pyrimidine-6(7H)-carboxylate], the figures for the IC50 in assay [1] and in assay [2] were 1000 to 10000 nM and less than 100 nM, respectively.
For `CCOC(=O)N1Cc2nc(-c3ccc(NC(=O)NCCO)cc3F)nc(N3CCOCC3)c2C1` [Example 171, ethyl 2-(2-fluoro-4-(3-(2-hydroxyethyl)ureido)phenyl)-4-morpholino-5H-pyrrolo[3,4-d]pyrimidine-6(7H)-carboxylate] the same measures were 1000 to 10000 nM and less than 100 nM.
The like results for `CC(C)N1Cc2nc(-c3ccc(NC(=O)NC4CC4)cc3F)nc(N3CCOC[C@@H]3C)c2C1` [Example 172, (S)-1-cyclopropyl-3-(3-fluoro-4-(6-isopropyl-4-(3-methylmorpholino)-6,7-dihydro-5H-pyrrolo[3,4-d]pyrimidin-2-yl)phenyl)urea] were, in that order, 1000 to 10000 nM and less than 100 nM.
The like results for `COC(=O)N1Cc2nc(-c3ccc(NC(=O)NC4CC4)cc3F)nc(N3CCOCC3)c2C1` [Example 173, Methyl 2-(4-(3-cyclopropylureido)-2-fluorophenyl)-4-morpholino-5H-pyrrolo[3,4-d]pyrimidine-6(7H)-carboxylate] were, in that order, greater than 10000 nM and less than 100 nM.
`CC(C)C(=O)N1Cc2nc(-c3ccc(NC(=O)NC4CC4)cc3F)nc(N3CCOC[C@@H]3C)c2C1` [Example 174, (S)-1-cyclopropyl-3-(3-fluoro-4-(6-isobutyryl-4-(3-methylmorpholino)-6,7-dihydro-5H-pyrrolo[3,4-d]pyrimidin-2-yl)phenyl)urea]: the IC50 in assay [1] is greater than 10000 nM; in assay [2], less than 100 nM.
For the compound `CCNC(=O)Nc1ccc(-c2nc3c(c(N4CCOC[C@@H]4C)n2)CCN(C(=O)N(C)C)C3)c(F)c1` [Example 176, (S)-2-(4-(3-ethylureido)-2-fluorophenyl)-N,N-dimethyl-4-(3-methylmorpholino)-5,6-dihydropyrido[3,4-d]pyrimidine-7(8H)-carboxamide], the figures for the IC50 in assay [1] and in assay [2] were 1000 to 10000 nM and less than 100 nM, respectively.
For the compound `C[C@H]1COCCN1c1nc(-c2ccc(NC(=O)NC3CC3)cc2F)nc2c1CN(S(C)(=O)=O)C2` [Example 177, (S)-1-cyclopropyl-3-(3-fluoro-4-(4-(3-methylmorpholino)-6-(methylsulfonyl)-6,7-dihydro-5H-pyrrolo[3,4-d]pyrimidin-2-yl)phenyl)urea], the IC50 was greater than 10000 nM in assay [1] and less than 100 nM in assay [2].
The like results for `C[C@H]1COCCN1c1nc(-c2ccc(NC(=O)NC3CC3)cc2F)nc2c1CN(C(=O)N(C)C)C2` [Example 178, (S)-2-(4-(3-cyclopropylureido)-2-fluorophenyl)-N,N-dimethyl-4-(3-methylmorpholino)-5H-pyrrolo[3,4-d]pyrimidine-6(7H)-carboxamide] were, in that order, greater than 10000 nM and 100 to 1000 nM.
For `CCOC(=O)N1Cc2nc(-c3ccc(NC(=O)NC4CC4)cc3F)nc(N3CCOC[C@H]3C)c2C1` [Example 179, (R)-ethyl 2-(4-(3-cyclopropylureido)-2-fluorophenyl)-4-(3-methylmorpholino)-5H-pyrrolo[3,4-d]pyrimidine-6(7H)-carboxylate] the same measures were greater than 10000 nM and less than 100 nM.
The like results for `COC(=O)N1Cc2nc(-c3ccc(NC(=O)NC4CC4)cc3F)nc(N3CCOC[C@H]3C)c2C1` [Example 180, (R)-methyl 2-(4-(3-cyclopropylureido)-2-fluorophenyl)-4-(3-methylmorpholino)-5H-pyrrolo[3,4-d]pyrimidine-6(7H)-carboxylate] were, in that order, 1000 to 10000 nM and less than 100 nM.
For `COC(=O)N1Cc2nc(-c3ccc(NC(=O)NCCO)cc3F)nc(N3CCOC[C@@H]3C)c2C1` [Example 181, (S)-methyl 2-(2-fluoro-4-(3-(2-hydroxyethyl)ureido)phenyl)-4-(3-methylmorpholino)-5H-pyrrolo[3,4-d]pyrimidine-6(7H)-carboxylate], the values for the IC50 in assay [1] and in assay [2] were 1000 to 10000 nM and less than 100 nM, respectively.
On to `COC(=O)N1Cc2nc(-c3ccc(NC(=O)NCCF)cc3F)nc(N3CCOC[C@@H]3C)c2C1` [Example 183, (S)-methyl 2-(2-fluoro-4-(3-(2-fluoroethyl)ureido)phenyl)-4-(3-methylmorpholino)-5H-pyrrolo[3,4-d]pyrimidine-6(7H)-carboxylate], for which the IC50 in assay [1] is greater than 10000 nM; in assay [2], 100 to 1000 nM.
The like results for `CC(C)N1Cc2nc(-c3ccc(NC(=O)NCCF)cc3F)nc(N3CCOCC3)c2C1` [Example 185, 1-(3-fluoro-4-(6-isopropyl-4-morpholino-6,7-dihyro-5H-pyrrolo[3,4-d]pyrimidin-2-yl)phenyl)-3-(2-fluoroethyl)urea] were, in that order, greater than 10000 nM and less than 100 nM.
For `CC(C)N1Cc2nc(-c3ccc(NC(=O)NCCF)cc3F)nc(N3CCOC[C@@H]3C)c2C1` [Example 186, (S)-1-(3-fluoro-4-(6-isopropyl-4-(3-methylmorpholino)-6,7-dihydro-5H-pyrrolo[3,4-d]pyrimidin-2-yl)phenyl)-3-(2-fluoroethyl)urea] the same measures were greater than 10000 nM and less than 100 nM.
For `CC(C)N1Cc2nc(-c3ccc(NC(=O)NCCO)cc3F)nc(N3CCOC[C@@H]3C)c2C1` [Example 187, (S)-1-(3-fluoro-4-(6-isopropyl-4-(3-methylmorpholino)-6,7-dihydro-5H-pyrrolo[3,4-d]pyrimidin-2-yl)phenyl)-3-(2-hydroxyethyl)urea] the same measures were greater than 10000 nM and less than 100 nM.
In the case of `C[C@@H]1COCCN1c1nc(-c2ccc(NC(=O)NC3CC3)cc2F)nc2c1CN(C(=O)C1CC1)C2` [Example 188, (R)-1-(4-(6-(cyclopropanecarbonyl)-4-(3-methylmorpholino)-6,7-dihydro-5H-pyrrolo[3,4-d]pyrimidin-2-yl)-3-fluorophenyl)-3-cyclopropylurea], the IC50 is greater than 10000 nM in assay [1] and less than 100 nM in assay [2].
In the case of `CC(C)NC(=O)N1CCc2c(nc(-c3ccc(NC(=O)NC4CC4)cc3F)nc2N2CCOC[C@@H]2C)C1` [Example 189, (S)-2-(4-(3-cyclopropylureido)-2-fluorophenyl)-N-isopropyl-4-(3-methylmorpholino)-5,6-dihydropyrido[3,4-d]pyrimidine-7(8H)-carboxamide], the figures for the IC50 in assay [1] and in assay [2] were greater than 10000 nM and less than 100 nM, respectively.
The like results for `C[C@@H]1COCCN1c1nc(-c2ccc(NC(=O)NC3CC3)cc2F)nc2c1CN(C=O)C2` [Example 190, (R)-1-cyclopropyl-3-(3-fluoro-4-(6-formyl-4-(3-methylmorpholino)-6,7-dihydro-5H-pyrrolo[3,4-d]pyrimidin-2-yl)phenyl)urea] were, in that order, greater than 10000 nM and less than 100 nM.
The like results for `C[C@@H]1COCCN1c1nc(-c2ccc(NC(=O)NC3CC3)cc2F)nc2c1CN(S(C)(=O)=O)C2` [Example 191, (R)-1-cyclopropyl-3-(3-fluoro-4-(4-(3-methylmorpholino)-6-(methylsulfonyl)-6,7-dihydro-5H-pyrrolo[3,4-d]pyrimidin-2-yl)phenyl)urea] were, in that order, greater than 10000 nM and 100 to 1000 nM.
